Several values for one entry are separate records, joined by “and”; a condition that tells them apart may be missing. Equal values may be shown once. Read-outs that look alike come from different tables or passages of the source.
System: α7 integrin promoter
Assay: muscle cell-based assay: α7βgal+/− myoblasts/myotubes, LacZ reporter, β-galactosidase cleavage of FDG
Set-up: species or system mouse
Settings: for AC50: read-out: Fit Log AC50 (converted); for Emax: read-out: Max Response [%]; for Fit HillSlope: curve fit; for Fit Zero Activity [%]: fitted activity at zero concentration; for Fit Curve Class: key not given; for Score: Table 12 Compound data, concentration-response curve fit; for Fit Infinite Activity [%]: fitted activity at infinite concentration
Experimental: An α7 integrin null mouse was produced in which exon 1 of the gene encoding the α7 integrin was replaced by the LacZ reporter. In these mice, all the transcriptional regulatory elements of the α7 integrin promoter were retained, allowing β-galactosidase to report expression of 7 integrin. A primary myoblast cell line (designated α7βgal^+/−) isolated from 10 day old α7^+/− pups were analyzed for the ability of β-galactosidase to report α7 integrin expression. α7βgal^+/− myoblasts were differentiated and subjected to X-gal staining and western analysis (FIGS. 1A and 1B).
The activity of the α7 integrin promoter was measured by β-galactosidase cleavage of the non-fluorescent compound fluorescein di-β-D-galactopyranoside (FDG) to fluorescein. This assay was used to screen compound libraries to identify molecules that up-regulate α7 integrin expression in muscle.
Also evaluated was the effect of various isoforms of laminin and the ligand for α7β1 integrin on integrin expression. Positive hits were subjected to dose-response analysis, western analysis and a myostatin counterscreen (a negative regulator of muscle growth).

[1] = Mus musculus, Table 12, log of AC50, given with negative sign, unit of AC50 not given

Structure (SMILES)	AC50 [1]	Emax (Mus musculus)	Fit HillSlope (Table 12)	Fit Zero Activity [%] (Table 12)	Fit Curve Class (Table 12)	Score	further results
O=C(COc1ccc(Cl)cc1)N1CCN(C2CCCC2)CC1.O=C(O)C(=O)O							Results in a α7+/− β-galactosidase assay, Myotubes, 0.5 uM: 0.1096; Results in a α7+/− β-galactosidase assay, Myotubes, 1 uM: 0.06035; Results in a α7+/− β-galactosidase assay, Myotubes, 5 uM: −0.07324; Results in a α7+/− β-galactosidase assay, Myotubes, 10 uM: −0.04013; Results in a α7+/− β-galactosidase assay, Myotubes, 20 uM: −0.1813; Results in a α7+/− β-galactosidase assay, Myotubes, 40 uM: −0.2711
O=C(Nc1ccccc1Cl)C1CCCN1C(=O)OCc1ccccc1 (centres unmarked)							Results in a α7+/− β-galactosidase assay, Myotubes, 0.5 uM: −0.04746; Results in a α7+/− β-galactosidase assay, Myotubes, 1 uM: −0.07012; Results in a α7+/− β-galactosidase assay, Myotubes, 5 uM: −0.00214; Results in a α7+/− β-galactosidase assay, Myotubes, 10 uM: −0.05774; Results in a α7+/− β-galactosidase assay, Myotubes, 20 uM: −0.1932; Results in a α7+/− β-galactosidase assay, Myotubes, 40 uM: −0.2694
C#CC1(O)CCC2C3CCC4=C/C(=N/OCC(=O)NCC(=O)NC(C(=O)O)C(C)C)CC[C@]4(C)C3CC[C@@]21C (some centres unmarked)							Results in a α7+/− β-galactosidase assay, Myotubes, 0.5 uM: 0.1086; Results in a α7+/− β-galactosidase assay, Myotubes, 1 uM: 0.2546; Results in a α7+/− β-galactosidase assay, Myotubes, 5 uM: 0.3822; Results in a α7+/− β-galactosidase assay, Myotubes, 10 uM: 0.2484; Results in a α7+/− β-galactosidase assay, Myotubes, 20 uM: 0.1342; Results in a α7+/− β-galactosidase assay, Myotubes, 40 uM: 0.073
O=C1Nc2ccccc2/C1=C/c1c[nH]cn1							Results in a α7+/− β-galactosidase assay, Myotubes, 0.5 uM: −0.09659; Results in a α7+/− β-galactosidase assay, Myotubes, 1 uM: 0.04801; Results in a α7+/− β-galactosidase assay, Myotubes, 5 uM: 0.2975; Results in a α7+/− β-galactosidase assay, Myotubes, 10 uM: 0.1108; Results in a α7+/− β-galactosidase assay, Myotubes, 20 uM: 0.1916; Results in a α7+/− β-galactosidase assay, Myotubes, 40 uM: 0.1189
Cc1ccc(NS(=O)(=O)c2cccc(C(=O)O)c2)cc1S(=O)(=O)N1CCOCC1							Results in a α7+/− β-galactosidase assay, Myotubes, 5 uM (Myotubes, compound at 5 uM): 0.6308 and 0.5052
COc1cc([N+](=O)[O-])cc(/C=N/NC(=O)C(O)(c2ccccc2)c2ccccc2)c1O							Results in a α7+/− β-galactosidase assay, Myotubes, 0.5 uM: 0.1119; Results in a α7+/− β-galactosidase assay, Myotubes, 1 uM: −0.01127; Results in a α7+/− β-galactosidase assay, Myotubes, 5 uM: −0.4224; Results in a α7+/− β-galactosidase assay, Myotubes, 10 uM: −0.4434; Results in a α7+/− β-galactosidase assay, Myotubes, 20 uM: −0.2622; Results in a α7+/− β-galactosidase assay, Myotubes, 40 uM: −0.3132
Cc1cc(C2CCCCC2)n(O)c(=O)c1 [Ciclopirox ethanolamine, ciclopirox ethanolamine, reference compound]							EC50 (Mus musculus, enhancement of α7 integrin expression in muscle cells, read-out: EC50): 0.6 µg/mL; Optimal Concentration (enhancement of α7 integrin expression in muscle cells): 4 µg/mL
CC(OC(=O)c1cc(-c2cccnc2)nc2ccccc12)C(=O)Nc1ccc2ccccc2c1 (centres unmarked) [Compound 1]	1120 nM	191%	3.132	−2.9752%	1.1	94	Activity at 0.307 μM [%] **: 0%
Cc1cccc(OCc2nc(C#N)c(N3CCCC3)o2)c1 [Compound 2]	3550 nM	223%	1.4163	3.1995%	1.1	91	Activity at 7.660 μM [%] **: 175.022%
COc1ccccc1-c1coc2c3c(ccc2c1=O)OC1CCCCN1C3 (centres unmarked) [Compound 3]	2240 nM	159%	3.0654	−35.3084%	1.1	89	
Cc1ccccc1C(=O)Nc1scc(-c2ccc(Br)cc2)c1C(=O)O [Compound 4]	2820 nM	137%	1.8617	7.6069%	1.1	87	
COc1cc2c(cc1NC(=O)Cc1ccc(C)cc1)oc1ccccc12 [Compound 5]	1120 nM	87.1%	2.5334	−5.0637%	1.1	86	Activity at 38.30 μM [%] **: 87.1241%
COCc1c(C(=O)OCc2nc(=O)c3sccc3[nH]2)oc2ccccc12 [Compound 6]	1120 nM	68.1%	1.3437	−58.5311%	1.1	85	
O=C(NC1CCCC1)c1ccc(CS(=O)(=O)Cc2ccccc2F)o1 [Compound 7]	4470 nM	105%	1.6924	12.5%	1.1	85	
CN(C)S(=O)(=O)c1cccc(C(=O)Nc2ccc3c(c2)CCC3)c1 [Compound 8]	2820 nM	94.3%	4.9549	−15.6523%	1.1	85	
Cc1c(C(=O)O)cccc1-n1c(C)cc(/C=N/Nc2ccc([N+](=O)[O-])cn2)c1C [Compound 9]			1.3723	−30.5005%	1.1	85	Max Response [%]: 88.6572%; Activity at 0.307 μM [%] **: −24.4743%; Activity at 1.530 μM [%] **: 6.2893%; Activity at 7.660 μM [%] **: 68.0567%; Activity at 38.30 μM [%] **: 88.6572%; Fit Infinite Activity [%] (Table 12): 92.2022%; Fit Log AC50 (Table 12, log of AC50, given with negative sign, unit of AC50 not given): −5.55
Cc1ccc(NP(=O)(Nc2ccc(C)cc2)Nc2ccc(C)cc2)cc1 [Compound 10]	3160 nM	102%	2.8473	0%	1.1	85	Activity at 0.307 μM [%] **: 0%
Cc1cc(OCC(=O)NC(C)C)ccc1Cl [Compound 11]	3980 nM	102%	2.5334	−0.509%	1.1	85	Activity at 0.307 μM [%] **: 0%
COC(=O)C1=C(C)N=C(C)/C(=C(/O)OC)C1c1ccccc1OCc1c(C)no[n+]1[O-] (centres unmarked) [Compound 12]	2820 nM	100%	1.4781	9.3996%	1.1	85	
COc1ccc(NC(=O)c2cccc(N3C(=O)c4ccc(C(=O)Nc5ccc(OC)c(O)c5)cc4C3=O)c2)cc1O [Compound 13]	4470 nM	95.6%	3.9295	−27.2857%	1.1	84	
CCOc1ccc(S(=O)(=O)NCCC(=O)NCC(c2cccs2)N2CCOCC2)cc1 (centres unmarked) [Compound 14]	2240 nM	61.7%	2.3332	−21.9345%	1.1	84	
CCOc1ccccc1NC(=O)c1cccc2c1C(=O)N(C1CCCCC1)C2 [Compound 15]	3160 nM	73.6%	1.6259	−16.1195%	1.1	84	
NC(=O)c1nsc(C(=O)N(c2ccccc2)C(C(=O)NCc2ccc(F)cc2)c2ccc(O)cc2)c1N (centres unmarked) [Compound 16]	2240 nM	75.2%	1.3443	−37.8568%	1.1	84	
CCc1ccc(N(C(=O)c2snc(C(N)=O)c2N)C(C(=O)NC2CCCC2)c2ccco2)cc1 (centres unmarked) [Compound 17]	2510 nM	67.6%	1.2475	−24.7641%	1.1	84	
COC(=O)C(=O)C/C(=N/Nc1ncnc2ccccc12)c1ccc(Cl)cc1 [Compound 18]	10000 nM		4.9549	8.7984%	2.1	84	Activity at 38.30 μM [%] **: 1767.43%; Fit Infinite Activity [%] (Table 12): 1760.36%
Cc1cc(NC(=O)c2ccc(Cl)cc2Cl)no1 [Compound 19]	1410 nM	52.1%	1.3437	−28.8963%	1.1	84	
CCOC(=O)Cc1csc(NC(=S)NC(=O)c2cc(OC)c(OC)c(OC)c2)n1 [Compound 20]	3550 nM	82.9%	2.3031	−17.7204%	1.1	84	
CC(C)CC1NC(=O)N(CC(=O)N2c3ccccc3NC(=O)C2(C)C)C1=O (centres unmarked) [Compound 21]	5620 nM	93.3%	4.4495	1.1731%	1.1	84	Activity at 1.530 μM [%] **: 0%
COCCSc1ccccc1C(=O)Nc1cc(C)cc(C)c1 [Compound 22]	4470 nM	82.9%	4.9549	−0.2899%	1.1	84	Activity at 0.307 μM [%] **: 0%; Activity at 1.530 μM [%] **: 0%
O=c1oc2c(-c3cccc(F)c3)cc(O)cc2s1 [Compound 23]	3980 nM	98.9%	2.9023	13.3122%	1.1	84	

Reference: US10028992B2, “Methods of treating muscular dystrophy” (BOARD OF REGENTS OF THE NEVADA SYSTEM OF HIGHER EDUCATION …, priority 2012, dated 2018)
